Laboratory results: US11008314B2, “Compounds and methods for modulating interleukin-2-inducible t-cell kinase” (CORVUS PHARMACEUTICALS, INC., priority 2016, dated 2021)

Key:
ITK = ITK (Homo sapiens (Human), UniProt Q08881); assay: IC50 against ITK; type: biochemical
TXK = TXK (Homo sapiens (Human), UniProt P42681); assay: IC50 against TXK; type: biochemical; details: for TXK/ITK: ratio of TXK IC50 to ITK IC50
JAK3 = JAK3 (Homo sapiens (Human), UniProt P52333); assay: IC50 against JAK3; type: biochemical
BTK = BTK (Homo sapiens (Human), UniProt Q06187); assay: IC50 against BTK; type: biochemical
Jurkat IL2 = Jurkat IL2 IC50; type: cell-based; details: Homo sapiens, Jurkat cells
Rat PO PK = details: in vivo, 6 mg/kg, PO 6 mpk
Mouse PO PK = details: in vivo, 10 mg/kg, PO 10 mpk

TXK, sequence (P42681 whole entry, species assumed): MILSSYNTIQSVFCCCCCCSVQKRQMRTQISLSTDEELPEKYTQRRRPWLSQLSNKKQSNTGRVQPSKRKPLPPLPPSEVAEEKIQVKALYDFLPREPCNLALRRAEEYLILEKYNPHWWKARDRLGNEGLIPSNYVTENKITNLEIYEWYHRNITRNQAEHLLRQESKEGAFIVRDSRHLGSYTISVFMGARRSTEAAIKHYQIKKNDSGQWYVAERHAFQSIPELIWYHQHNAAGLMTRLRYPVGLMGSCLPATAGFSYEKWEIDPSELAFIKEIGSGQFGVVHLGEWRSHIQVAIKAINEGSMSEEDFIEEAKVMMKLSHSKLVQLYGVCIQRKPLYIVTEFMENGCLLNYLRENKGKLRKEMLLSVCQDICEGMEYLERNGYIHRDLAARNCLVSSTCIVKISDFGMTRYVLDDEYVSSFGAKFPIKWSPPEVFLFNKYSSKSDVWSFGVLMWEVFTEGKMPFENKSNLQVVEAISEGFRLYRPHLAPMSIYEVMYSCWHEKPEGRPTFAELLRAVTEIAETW
ITK, sequence (Q08881 whole entry): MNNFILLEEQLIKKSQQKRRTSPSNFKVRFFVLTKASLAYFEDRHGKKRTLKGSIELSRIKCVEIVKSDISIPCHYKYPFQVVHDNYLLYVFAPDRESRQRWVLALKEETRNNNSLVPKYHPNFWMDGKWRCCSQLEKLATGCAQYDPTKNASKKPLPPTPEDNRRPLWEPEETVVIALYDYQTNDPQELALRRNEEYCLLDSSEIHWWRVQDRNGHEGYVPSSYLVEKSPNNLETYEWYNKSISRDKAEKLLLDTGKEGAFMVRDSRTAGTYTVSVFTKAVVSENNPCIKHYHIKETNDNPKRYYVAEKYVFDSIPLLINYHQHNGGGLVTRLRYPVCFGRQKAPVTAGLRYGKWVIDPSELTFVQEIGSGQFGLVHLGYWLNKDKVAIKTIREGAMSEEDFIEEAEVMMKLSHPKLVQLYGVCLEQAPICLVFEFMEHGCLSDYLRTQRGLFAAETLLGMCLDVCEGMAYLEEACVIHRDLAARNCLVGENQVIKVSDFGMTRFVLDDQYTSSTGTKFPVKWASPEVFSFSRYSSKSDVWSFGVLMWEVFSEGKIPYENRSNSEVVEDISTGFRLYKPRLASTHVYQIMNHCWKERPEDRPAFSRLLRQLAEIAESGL
BTK, sequence (Q06187 whole entry, species assumed): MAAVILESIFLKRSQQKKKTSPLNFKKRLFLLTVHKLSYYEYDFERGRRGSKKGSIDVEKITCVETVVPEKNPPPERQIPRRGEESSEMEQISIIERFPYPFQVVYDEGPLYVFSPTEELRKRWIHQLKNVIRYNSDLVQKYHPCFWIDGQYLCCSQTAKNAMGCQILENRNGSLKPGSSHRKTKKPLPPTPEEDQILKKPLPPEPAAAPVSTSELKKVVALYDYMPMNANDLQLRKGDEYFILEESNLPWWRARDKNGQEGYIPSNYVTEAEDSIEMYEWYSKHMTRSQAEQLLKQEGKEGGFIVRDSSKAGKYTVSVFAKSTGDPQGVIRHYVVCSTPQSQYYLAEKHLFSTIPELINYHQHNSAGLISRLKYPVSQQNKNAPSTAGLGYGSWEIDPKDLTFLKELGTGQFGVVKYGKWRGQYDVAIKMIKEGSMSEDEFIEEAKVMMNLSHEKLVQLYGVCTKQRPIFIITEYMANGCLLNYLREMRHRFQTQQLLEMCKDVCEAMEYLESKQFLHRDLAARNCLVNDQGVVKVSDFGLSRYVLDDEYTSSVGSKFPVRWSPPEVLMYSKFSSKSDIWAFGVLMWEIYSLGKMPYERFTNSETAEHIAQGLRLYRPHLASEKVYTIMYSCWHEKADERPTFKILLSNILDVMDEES
JAK3, sequence (P52333 whole entry, species assumed): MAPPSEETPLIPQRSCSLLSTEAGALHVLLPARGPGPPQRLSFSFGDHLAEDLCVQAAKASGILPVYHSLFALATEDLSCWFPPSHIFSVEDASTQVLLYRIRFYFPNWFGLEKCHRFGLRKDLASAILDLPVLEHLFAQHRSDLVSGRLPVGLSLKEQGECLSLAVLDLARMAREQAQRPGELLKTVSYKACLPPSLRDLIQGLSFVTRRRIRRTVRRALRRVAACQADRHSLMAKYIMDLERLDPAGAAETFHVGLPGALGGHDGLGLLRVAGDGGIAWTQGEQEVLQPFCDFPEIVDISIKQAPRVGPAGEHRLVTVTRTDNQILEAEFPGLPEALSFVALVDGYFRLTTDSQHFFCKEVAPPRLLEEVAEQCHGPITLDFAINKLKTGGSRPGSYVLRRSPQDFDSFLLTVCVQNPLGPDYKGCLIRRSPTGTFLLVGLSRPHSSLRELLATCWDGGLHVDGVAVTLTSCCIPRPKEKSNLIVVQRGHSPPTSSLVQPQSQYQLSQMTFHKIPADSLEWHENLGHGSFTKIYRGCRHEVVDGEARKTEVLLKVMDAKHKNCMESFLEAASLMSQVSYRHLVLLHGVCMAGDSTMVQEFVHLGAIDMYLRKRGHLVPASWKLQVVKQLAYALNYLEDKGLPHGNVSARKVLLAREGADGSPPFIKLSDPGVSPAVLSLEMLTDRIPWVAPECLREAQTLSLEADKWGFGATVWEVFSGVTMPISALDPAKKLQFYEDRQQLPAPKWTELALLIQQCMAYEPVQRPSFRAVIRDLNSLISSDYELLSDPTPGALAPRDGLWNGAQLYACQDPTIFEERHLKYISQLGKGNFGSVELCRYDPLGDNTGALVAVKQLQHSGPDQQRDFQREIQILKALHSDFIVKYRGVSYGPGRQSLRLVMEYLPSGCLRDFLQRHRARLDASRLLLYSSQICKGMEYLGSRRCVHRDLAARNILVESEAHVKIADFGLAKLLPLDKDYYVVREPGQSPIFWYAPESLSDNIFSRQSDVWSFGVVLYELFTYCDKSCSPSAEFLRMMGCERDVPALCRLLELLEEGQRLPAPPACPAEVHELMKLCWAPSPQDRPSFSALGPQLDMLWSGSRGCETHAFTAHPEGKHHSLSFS

Structure (SMILES)	IC50 (ITK) [nM]	IC50 (TXK) [nM]	TXK/ITK (TXK)	IC50 (JAK3) [nM]	IC50 (BTK) [nM]	IC50 (Jurkat IL2) [nM]	AUC(0-t) (Rat PO PK) [ng·h/mL]	Cmax (Rat PO PK) [ng/mL]	bioavailability (Rat PO PK) [%]	AUC(0-t) (Mouse PO PK) [ng·h/mL]	Cmax (Mouse PO PK) [ng/mL]	bioavailability (Mouse PO PK) [%]
C=CC(=O)N1CCN(C(=O)c2cc(Sc3cnc(NC(=O)c4ccsc4)s3)c(C)cc2OC)CC1 [Compound 90]	< 10	< 10	8.3141	10 to 100	10 to 100	33				419	527	20
C=CC(=O)N1C[C@H]2CC[C@@H](C1)N2C(=O)c1cc(Sc2cnc(NC(=O)c3ccsc3)s2)c(C)cc1OC [Compound 143, N-(5-((5-((1R,5S)-3-acryloyl-3,8-diazabicyclo[3.2.1]octane-8-carbonyl)-4-methoxy-2-methylphenyl)thio)thiazol-2-yl)thiophene-3-carboxamide]	< 10	< 10	3.51	10 to 100	< 10							
C=CC(=O)N1CC[C@@H](N(C)C(=O)c2cc(Sc3cnc(NC(=O)c4ccsc4)s3)c(C)cc2OC)C1 [Compound 146, (R)-N-(5-((5-((1-acryloylpyrrolidin-3-yl)(methyl)carbamoyl)-4-methoxy-2-methylphenyl)thio)thiazol-2-yl)thiophene-3-carboxamide]	< 10	< 10	3.19	< 10	< 10							
C=CC(=O)N1CCCN(C(=O)c2cc(Sc3cnc(NC(=O)C4CC4)s3)c(C)cc2OC)C[C@H]1C(C)C [Compound 148, (R)-N-(5-((5-(4-acryloyl-3-isopropyl-1,4-diazepane-1-carbonyl)-4-methoxy-2-methylphenyl)thio)thiazol-2-yl)cyclopropanecarboxamide]	< 10	100 to 1000	82.31	≥ 10000	100 to 1000							
C=CC(=O)N1CCCN(C(=O)c2cc(Sc3cnc(NC(=O)c4ccsc4)s3)c(C)cc2OC)C[C@H]1C(C)C [Compound 149, (R)-N-(5-((5-(4-acryloyl-3-isopropyl-1,4-diazepane-l-carbonyl)-4-methoxy-2-methylphenyl)thio)thiazol-2-yl)thiophene-3-carboxamide]	< 10	100 to 1000	171.45	≥ 10000	10 to 100							
C=CC(=O)N1[C@@H]2CC[C@H]1CN(C(=O)c1cc(Sc3cnc(Nc4ccccn4)s3)c(C)cc1OC)C2 [Compound 150, 1-((1R, 5S)-3-(2-methoxy-4-methyl-5-((2-(pyridin-2-ylamino)thiazol-5-yl)thio)benzoyl)-3,8-diazabicyclo[3.2.1]octan-8-yl)prop-2-en-1-one]	< 10	< 10	1.76	10 to 100	< 10							
C=CC(=O)N1CC[C@@H](N(C)C(=O)c2cc(Sc3cnc(Nc4ccccn4)s3)c(C)cc2OC)C1 [Compound 154, (R)-N-(1-acryloylpyrrolidin-3-yl)-2-methoxy-N,4-dimethyl-5-((2-(pyridin-2-ylamino)thiazol-5-yl)thio)benzamide]	< 10	< 10	1.01	< 10	< 10							
C=CC(=O)N1[C@@H]2CC[C@H]1CN(C(=O)c1cc(Sc3cnc(NC(=O)c4ccsc4)s3)c(C)cc1OC)C2 [Compound 155, N-(5-((5-((1R, 5S)-8-acryloyl-3,8-diazabicyclo[3.2.1]octane-3-carbonyl)-4-methoxy-2-methylphenyl)thio)thiazol-2-yl)thiophene-3-carboxamide]	< 10	< 10	2.73	10 to 100	< 10							
C=CC(=O)N1CCN(C(=O)c2cc(Sc3cnc(NC(=O)c4ccsc4)s3)c(C)cc2OC)C[C@H]1C#N [Compound 156, (S)-N-(5-((5-(4-acryloyl-3-cyanopiperazine-1-carbonyl)-4-methoxy-2-methylphenyl)thio)thiazol-2-yl)thiophene-3-carboxamide]	< 10	< 10	3.09	< 10	< 10							

Results, then the molecule that gave them:

IC50 (ITK) [nM]	IC50 (TXK) [nM]	TXK/ITK (TXK)	IC50 (JAK3) [nM]	IC50 (BTK) [nM]	IC50 (Jurkat IL2) [nM]	AUC(0-t) (Rat PO PK) [ng·h/mL]	Cmax (Rat PO PK) [ng/mL]	bioavailability (Rat PO PK) [%]	AUC(0-t) (Mouse PO PK) [ng·h/mL]	Cmax (Mouse PO PK) [ng/mL]	bioavailability (Mouse PO PK) [%]	Structure (SMILES)
< 10	< 10	7.378	100 to 1000	100 to 1000	10	10.9	97	10.9	335	613	20.1	C=CC(=O)N1CCN(C(=O)c2cc(Sc3cnc(NC(=O)C4CC4)s3)c(C)cc2OC)CC1 [Compound 1]
< 10	10 to 100	22.223	100 to 1000	100 to 1000	53	18.1	148	18.1	215	292	10.5	C=CC(=O)N1CCN(C(=O)c2cc(Sc3cnc(NC(=O)C4CC4)s3)c(C)cc2OC)C[C@H]1C [Compound 21]
< 10	1000 to 10000	239.91	1000 to 10000	100 to 1000	100	0.4	15.7	0.4				C=CC(=O)N1CCCN(C(=O)c2cc(Sc3cnc(NC(=O)c4cccc(CN(C)C)c4)s3)c(C)cc2OC)CC1 [Compound 33]
	100 to 1000		1000 to 10000	100 to 1000	31	12.5	75	12.5	226	368	9.8	C=CC(=O)N1CCCN(C(=O)c2cc(Sc3cnc(NC(=O)C4CC4)s3)c(C)cc2OC)C[C@H]1C [Compound 44]
< 10	1000 to 10000	230.63	1000 to 10000	100 to 1000	36	3.4	25.2	3.4				C=CC(=O)N1CCCN(C(=O)c2cc(Sc3cnc(NC(=O)c4ccc(F)c(CN(C)C)c4)s3)c(C)cc2OC)CC1 [Compound 50]
< 10	10 to 100	18.84	100 to 1000	10 to 100								C=CC(=O)N1CCN(C(=O)c2cc(Sc3cnc(NC(=O)c4ccsc4)s3)c(C)cc2OC)[C@@H](C)C1 [Compound 144, (S)-N-(5-((5-(4-acryloyl-2-methylpiperazine-1-carbonyl)-4-methoxy-2-methylphenyl)thio)thiazol-2-yl)thiophene-3-carboxamide]
< 10	< 10	3.86	10 to 100	< 10								C=CC(=O)N1CCC2(C1)CN(C(=O)c1cc(Sc3cnc(NC(=O)c4ccsc4)s3)c(C)cc1OC)C2 [Compound 145, N-(5-((5-(6-acryloyl-2,6-diazaspiro[3.4]octane-2-carbonyl)-4-methoxy-2-methylphenyl)thio)thiazol-2-yl)thiophene-3-carboxamide]
< 10	100 to 1000	29.58	1000 to 10000	10 to 100								C=CC(=O)N1CCCN(C(=O)c2cc(Sc3cnc(Nc4ccccn4)s3)c(C)cc2OC)C[C@H]1C(C)C [Compound 147, (R)-l-(2-isopropyl-4-(2-methoxy-4-methyl-5-((2-(pyridin-2-ylamino)thiazol-5-yl)thio)benzoyl)-1,4-diazepan-1-yl)prop-2-en-1-one]
< 10	< 10	6.43	10 to 100	10 to 100								C=CC(=O)N1CCN(C(=O)c2cc(Sc3cnc(Nc4ccccn4)s3)c(C)cc2OC)[C@@H](C)C1 [Compound 151, (S)-1-(4-(2-methoxy-4-methyl-5-((2-(pyridin-2-ylamino)thiazol-5-yl)thio)benzoyl)-3-methylpiperazin-1-yl)prop-2-en-1-one]
< 10	< 10	2.06	100 to 1000	10 to 100								C=CC(=O)N1CCC2(C1)CN(C(=O)c1cc(Sc3cnc(Nc4ccccn4)s3)c(C)cc1OC)C2 [Compound 152, 1-(2-(2-methoxy-4-methyl-5-((2-(pyridin-2-ylamino)thiazol-5-yl)thio)benzoyl)-2,6-diazaspiro[3.4]octan-6-yl)prop-2-en-1-one]
< 10		0.61	< 10	< 10								C=CC(=O)N1CCN(C(=O)c2cc(Sc3cnc(Nc4ccccn4)s3)c(C)cc2OC)C[C@H]1C#N [Compound 153, (S)-1-acryloyl-4-(2-methoxy-4-methyl-5-((2-(pyridin-2-ylamino)thiazol-5-yl)thio)benzoyl)piperazine-2-carbonitrile]
